Assay results: patent publication US9242984B2, “Pyrazolyl derivatives as Syk inhibitors” (Merck Sharp & Dohme Corp., priority 2012, dated 2016)
Where two headings read alike, the source gives them in different places.

Target: T1, recombinant human Syk (GST-hSyk fusion protein) (Homo sapiens, UniProt P43405)
T1 construct: purchased Carna Biosciences 08-176
Assay: Homogeneous Time-Resolved Fluorescence (HTRF) assay for the recombinant human Syk enzyme
Format: biochemical
Settings: 10-dose titration, 25 μM ATP
Outline: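 GST-hSyk (5 pM) preincubated 10 min with compound (0.1% DMSO) in 15 mM Tris-HCl pH 7.5, 2 mM DTT; reaction started with 250 nM biotinylated peptide, 5 mM Mg, 25 μM ATP, 45 min, room temperature. EDTA quench, Eu-anti-phosphotyrosine/SA-APC HTRF read after 30 min; IC50 from 10-dose titration (10 μM–0.508 nM), four-parameter fit.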

[1] = IC50 class, read-out: rhSYK Activity

Compound	IC50 [1] [nM]	IC50 (read-out: rhSYK IC50) [nM]
Cc1cc(Nc2nccc(C(F)(F)F)n2)cc(-c2cc[nH]n2)c1 [Example 1.7, N-[3-methyl-5-(1H-pyrazol-3-yl)phenyl]-4-(trifluoromethyl)pyrimidin-2-amine]	≤ 100	–
Cc1cc(Nc2nccc(C(F)(F)F)n2)cc(-c2cnn(CCC(=O)O)c2)c1 [Example 1.2, 3-[4-(3-methyl-5-{[4-(trifluoromethyl)-pyrirnidin-2-yl]amino}-phenyl)-1H-pyrazol-1-yl]-propanoic acid]	≤ 100	–
Nc1cc(Nc2nccc(C(F)(F)F)n2)cc(-c2cnn(C3CCC(C(=O)O)CC3)c2)c1 (centres unmarked) [Example 1.51, 4-[4-(3-amino-5-{[4-(trifluoromethyl)pyrimidin-2-yl]amino}phenyl)-1H-pyrazol-1-yl]cyclohexanecarboxylic acid]	≤ 100	–
O=C(O)C1CCC(n2cc(-c3cc(Cl)cc(Nc4nccc(C(F)(F)F)n4)c3)cn2)CC1 (centres unmarked) [Example 1.60, 4-[4-(3-chloro-5-{[4-(trifluoromethyl)pyrimidin-2-yl]amino}phenyl)-1H-pyrazol-1-yl]cyclohexanecarboxylic acid]	≤ 100	–
Cc1cc(Nc2nccc(C(F)F)n2)cc(-c2cnn(C3CCC(C(=O)O)CC3)c2)c1 (centres unmarked) [Example 2.60, 4-[4-(3-{[4-(difluoromethyl)pyrimidin-2-yl]amino}-5-methylphenyl)-1H-pyrazol-1-yl]cyclohexanecarboxylic acid]	≤ 100	–
Cc1cc(Nc2nccc(C(F)(F)F)n2)cc(-c2cnn3ccccc23)c1 [Example 1.1, N-(3-methyl-5-(pyrazolo[1,5-a]pyridin-3-yl)phenyl)-4-(trifluoromethyl)pyrimidin-2-amine]	≤ 100	65.8
Cc1cc(Nc2nccc(C(F)(F)F)n2)cc(-c2cnn(CCO)c2)c1 [Example 3.36, 2-[4-(3-methyl-5-{[4-(trifluoromethyl)-pyrimidin-2-yl]amino}-phenyl)-1H-pyrazol-1-yl]ethanol]	≤ 100	–
6-methyl-2-(1H-pyrazol-4-yl)-N-[4-(trifluoro-methyl)pyridin-2-yl]pyrimidin-4-amine [Example 1.41]	≤ 100	–
Cc1cc(Nc2nccc(C(F)(F)F)n2)cc(-c2ccnn2C(C)C)c1 [Example 1.8, N-{3-methyl-5-[1-(1-methylethyl)-1H-pyrazol-5-yl]phenyl}-4-(trifluoromethyl)pyrimidin-2-amine]	100 to 1000	–
Cc1cc(Nc2nccc(C(F)(F)F)n2)cc(-c2cnn(C3CCC(C(=O)O)CC3)c2)c1 (centres unmarked) [Example 1.56, 4-[4-(3-methyl-5-{[4-(trifluoromethyl)pyrimidin-2-yl]amino}phenyl)-1H-pyrazol-1-yl]cyclohexanecarboxylic acid]	≤ 100	–

The next lines start with the values.

IC50 [1] [nM]	IC50 (read-out: rhSYK IC50) [nM]	Compound
≤ 100	–	Cc1cc(Nc2nccc(C(F)(F)F)n2)cc(-c2cnn(C(C)C(C)(O)CO)c2)c1 (single isomer, unassigned) [Example 21.11, 2-methyl-3-[4-(3-methyl-5-{[4-(trifluoromethyl)pyrimidin-2-yl]amino}phenyl)-1H-pyrazol-1-yl]butane-1,2-diol]
≤ 100	10.7	Cc1cc(Nc2nccc(C(F)(F)F)n2)cc(-c2cnn(C(C)C)c2)c1 [Example 13.1, N-(3-(1-isopropyl-1H-pyrazol-4-yl)-5-methylphenyl)-4-(trifluoromethyl)-pyrimidin-2-amine]
≤ 100	–	Cc1cc(Nc2nccc(C(F)F)n2)cc(-c2cnn(CC(C)(C)NC(=O)OCCF)c2)c1 [Example 27.10, 2-fluoroethyl {2-[4-(3-{[4-(difluoromethyl)pyrimidin-2-yl]amino}-5-methylphenyl)-1H-pyrazol-1-yl]-1,1-dimethylethyl}carbamate]
≤ 100	6.7	Cc1cc(Nc2nccc(C(F)F)n2)cc(-c2cnn(C3CC(C)(C)CC(C)(O)C3O)c2)c1 (centres unmarked) [Example 22.10]
≤ 100	–	Cc1cc(Nc2nccc(C(F)(F)F)n2)cc(-c2cnn([C@@H](C)[C@@](C)(O)CO)c2)c1 (single isomer, unassigned) [Example 21.8, 2-methyl-3-[4-(3-methyl-5-{[4-(trifluoromethyl)pyrimidin-2-yl]amino}phenyl)-1H-pyrazol-1-yl]butane-1,2-diol]
≤ 100	–	Cc1cc(Nc2nccc(C(F)(F)F)n2)cc(-c2cnn(CC(O)c3ccc(C(N)=O)cc3)c2)c1 (centres unmarked) [Example 8.24, 4-{1-hydroxy-2-[4-(3-methyl-5-{[4-(trifluorometh-yl)pyrimidin-2-yl]amino}-phenyl)-1H-pyrazol-1-yl]ethyl}-benzamide]
≤ 100	29.4	Cc1cc(Nc2nccc(C)n2)cc(-c2cnn(C3CCCC(O)C3O)c2)c1 (centres unmarked) [Example 10.10, 3-(4-{3-methyl-5-[(4-methylpyrimidin-2-yl)amino]phenyl}-1H-pyrazol-1-yl)cyclohexane-1,2-diol]
≤ 100	–	Cc1cc(Nc2nccc(C(F)F)n2)cc(-c2cnn(CC(O)CN)c2)c1 (centres unmarked) [Example 5.37, 1-amino-3-[4-(3-{[4-(difluoromethyl)pyrimidin-2-yl]amino}-5-methylphenyl)-1H-pyrazol-1-yl]propan-2-ol]
≤ 100	–	Cc1cc(Nc2nccc(C(F)(F)F)n2)cc(-c2cnn(CC3NC(=O)OC3C)c2)c1 (centres unmarked) [Example 3.127, 5-methyl-4-{[4-(3-methyl-5-{[4-(trifluoromethyl)pyrimidin-2-yl]amino}phenyl)-1H-pyrazol-1-yl]methyl}-1,3-oxazolidin-2-one]
≤ 100	5.9	Cc1cc(Nc2nccc(C(F)(F)F)n2)cc(-c2cnn([C@H]3CC[C@@H](O)CC3)c2)c1 [Example 15, cis-4-[4-(3-methyl-5-{[4-(trifluoromethyl)pyrimidin-2-yl]amino}phenyl)-1H-pyrazol-1-yl]cyclohexanol]
≤ 100	–	COc1ccnc(Nc2cccc(-c3cnn(C[C@H](O)C(=O)O)c3)c2)n1 [Example 11.4, (2S)-2-hydroxy-3-(4-{3-[(4-methoxy-pyrimidin-2-yl)-amino]phenyl}-1H-pyrazol-1-yl)-propanoic acid]
≤ 100	–	Cc1cc(Nc2nccc(C(F)F)n2)cc(-c2cnn(CC(O)CNC(=O)OC(C)(C)C)c2)c1 (centres unmarked) [Example 5.21, tert-butyl {3-[4-(3-{[4-(difluoromethyl)pyrimidin-2-yl]amino}-5-methylphenyl)-1H-pyrazol-1-yl]-2-hydroxypropyl}carbamate]
≤ 100	1.3	Cc1cc(Nc2nccc(C(F)F)n2)cc(-c2cnn(C(C)C(C)(O)CO)c2)c1 (single isomer, unassigned) [Example 22.1, 3-(4-(3-((4-(Difluoromethyl)pyrimidin-2-yl)amino)-5-methylphenyl)-1H-pyrazol-1-yl)-2-methylbutane-1,2-diol]
≤ 100	–	CCNC(=O)NC(C)(C)Cn1cc(-c2cc(C)cc(Nc3nccc(C(F)F)n3)c2)cn1 [Example 27.8, 1-{2-[4-(3-{[4-(difluoromethyl)pyrimidin-2-yl]amino}-5-methylphenyl)-1H-pyrazol-1-yl]-1,1-dimethylethyl}-3-ethylurea]
≤ 100	2.6	Cc1cc(Nc2nccc(C(F)F)n2)cc(-c2cnn(CC(C)(O)C(F)(F)F)c2)c1 (single isomer, unassigned) [Example 24.1, (S or R)-3-(4-(3-((4-(difluoromethyl)pyrimidin-2-yl)amino)-5-methylphenyl)-1H-pyrazol-1-yl)-1,1,1-trifluoro-2-methylpropan-2-ol]
